Legend:
Format in all cases: in vivo
[1] = test system: barnyardgrass (Echinochloa crus-galli (L.) P. Beauv. var. crus-galli); assay: Test Example 2: herbicidal effect by soil application to upland field; conditions: soil surface spray, upland field soil, 1,000 g active ingredient per hectare, 21st day after application
Method in brief: (§1)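 Greenhouse pot assay with field soil. Freshly sown seeds were covered with soil, then the surface was sprayed with diluted wettable powder: 1,000 g a.i./ha, 1,000 L/ha. Herbicidal effect scored at day 21 by standard criteria.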

[2] = test system: green foxtail (Setaria viridis (L.) P. Beauv.); assay: as above; conditions: soil surface spray, upland field soil, 1,000 g active ingredient per hectare, 21st day after application
Method in brief: as §1

[3] = test system: velvetleaf (Abutilon theophrasti medicus); assay: as above; conditions: soil surface spray, upland field soil, 1,000 g active ingredient per hectare, 21st day after application
Method in brief: as §1

[4] = test system: slender amaranth (Amaranthus viridis L.); assay: as above; conditions: soil surface spray, upland field soil, 1,000 g active ingredient per hectare, 21st day after application
Method in brief: as §1

[5] = test system: Japanese bulrush (Scirpus juncoides Roxb.); assay: Test Example 1: herbicidal effect by soil application to paddy field; conditions: paddy field soil application; active ingredient 1,000 g per 1 hectare; wettable powder added dropwise to water surface the day after sowing; examined on the 21st day after application
Method in brief: (§2)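 Under greenhouse conditions, seeds sown on puddled paddy soil in 100 cm2 pots under 3 cm of standing water received the test compound; injury was assessed with a standard scoring scheme three weeks (day 21) after treatment.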

[6] = test system: heartshape false pickerelweed (Monochoria vaginalis (Burm.f.) C.Presl); assay: as above; conditions: paddy field soil application; active ingredient 1,000 g per 1 hectare; wettable powder added dropwise to water surface the day after sowing; examined on the 21st day after application
Method in brief: as §2

[7] = test system: early watergrass (Echinochloa oryzicola Vasing); assay: as above; conditions: paddy field soil application; active ingredient 1,000 g per 1 hectare; wettable powder added dropwise to water surface the day after sowing; examined on the 21st day after application
Method in brief: as §2

[8] = test system: barnyardgrass (Echinochloa crus-galli (L.) P. Beauv. var. crus-galli); assay: Test Example 3: herbicidal effect by application to upland field (foliage treatment); conditions: foliage treatment, plants grown two weeks, 1,000 g active ingredient per hectare, 14th day after application
Method in brief: (§3)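 Foliage treatment, greenhouse: 2-week-old plants in field soil; wettable powder in water sprayed over the top at 1,000 g a.i./ha (1,000 L/ha); rating on day 14 post-application.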

[9] = test system: green foxtail (Setaria viridis (L.) P. Beauv.); assay: as above; conditions: foliage treatment, plants grown two weeks, 1,000 g active ingredient per hectare, 14th day after application
Method in brief: as §3

[10] = test system: velvetleaf (Abutilon theophrasti medicus); assay: as above; conditions: foliage treatment, plants grown two weeks, 1,000 g active ingredient per hectare, 14th day after application
Method in brief: as §3

[11] = test system: slender amaranth (Amaranthus viridis L.); assay: as above; conditions: foliage treatment, plants grown two weeks, 1,000 g active ingredient per hectare, 14th day after application
Method in brief: as §3

| Compound | herbicidal effect (index), Barnyardgrass [1] | herbicidal effect (index), Green Foxtail [2] | herbicidal effect (index), Velvetleaf [3] | herbicidal effect (index), Slender Amaranth [4] | herbicidal effect, Scirpus juncoides Roxb. [5] | herbicidal effect, Monochoria vaginalis (Burm. f.) C. Presl [6] | herbicidal effect, Echinochloa oryzicola Vasing [7] | herbicidal effect (index), Barnyardgrass [8] | herbicidal effect (index), Green Foxtail [9] | herbicidal effect (index), Velvetleaf [10] | herbicidal effect (index), Slender Amaranth [11] |
| --- | --- | --- | --- | --- | --- | --- | --- | --- | --- | --- | --- |
| O=C1CCCC(O)=C1C(=O)c1ccc(C(F)(F)F)n(-c2ccccc2Cl)c1=O [I-73] | 5 (90% or more of herbicidal effect and crop phytotoxicity) | 5 (90% or more of herbicidal effect and crop phytotoxicity) | 5 (90% or more of herbicidal effect and crop phytotoxicity) | 5 (90% or more of herbicidal effect and crop phytotoxicity) | 5 (90% or more of herbicidal effect and crop phytotoxicity) | 5 (90% or more of herbicidal effect and crop phytotoxicity) | 5 (90% or more of herbicidal effect and crop phytotoxicity) | 5 (90% or more of herbicidal effect and crop phytotoxicity) | 4 (70 to less than 90% of herbicidal effect and crop phytotoxicity) | 5 (90% or more of herbicidal effect and crop phytotoxicity) | 5 (90% or more of herbicidal effect and crop phytotoxicity) |
| O=C1CCCC(O)=C1C(=O)c1ccc(C(F)(F)F)n(-c2cccc(Cl)c2)c1=O [I-74] | 5 (90% or more of herbicidal effect and crop phytotoxicity) | 5 (90% or more of herbicidal effect and crop phytotoxicity) | 5 (90% or more of herbicidal effect and crop phytotoxicity) | 5 (90% or more of herbicidal effect and crop phytotoxicity) | 5 (90% or more of herbicidal effect and crop phytotoxicity) | 5 (90% or more of herbicidal effect and crop phytotoxicity) | 5 (90% or more of herbicidal effect and crop phytotoxicity) | 5 (90% or more of herbicidal effect and crop phytotoxicity) | 5 (90% or more of herbicidal effect and crop phytotoxicity) | 5 (90% or more of herbicidal effect and crop phytotoxicity) | 5 (90% or more of herbicidal effect and crop phytotoxicity) |
| O=C1CCCC(O)=C1C(=O)c1ccc(C(F)(F)F)n(-c2ccc(Cl)cc2)c1=O [I-75] | 5 (90% or more of herbicidal effect and crop phytotoxicity) | 5 (90% or more of herbicidal effect and crop phytotoxicity) | 5 (90% or more of herbicidal effect and crop phytotoxicity) | 5 (90% or more of herbicidal effect and crop phytotoxicity) | 5 (90% or more of herbicidal effect and crop phytotoxicity) | 5 (90% or more of herbicidal effect and crop phytotoxicity) | 5 (90% or more of herbicidal effect and crop phytotoxicity) | 5 (90% or more of herbicidal effect and crop phytotoxicity) | 5 (90% or more of herbicidal effect and crop phytotoxicity) | 5 (90% or more of herbicidal effect and crop phytotoxicity) | 5 (90% or more of herbicidal effect and crop phytotoxicity) |
| COc1ccccc1-n1c(C(F)(F)F)ccc(C(=O)C2=C(O)CCCC2=O)c1=O [I-76] | 5 (90% or more of herbicidal effect and crop phytotoxicity) | 5 (90% or more of herbicidal effect and crop phytotoxicity) | 5 (90% or more of herbicidal effect and crop phytotoxicity) | 5 (90% or more of herbicidal effect and crop phytotoxicity) | 5 (90% or more of herbicidal effect and crop phytotoxicity) | 5 (90% or more of herbicidal effect and crop phytotoxicity) | 5 (90% or more of herbicidal effect and crop phytotoxicity) | 5 (90% or more of herbicidal effect and crop phytotoxicity) | 3 (50 to less than 70% of herbicidal effect and crop phytotoxicity) | 5 (90% or more of herbicidal effect and crop phytotoxicity) | 5 (90% or more of herbicidal effect and crop phytotoxicity) |
| O=C1CCCC(O)=C1C(=O)c1ccc(C(F)(F)F)n(-c2ccc(OC(F)(F)F)cc2)c1=O [I-79] | 5 (90% or more of herbicidal effect and crop phytotoxicity) | 5 (90% or more of herbicidal effect and crop phytotoxicity) | 5 (90% or more of herbicidal effect and crop phytotoxicity) | 5 (90% or more of herbicidal effect and crop phytotoxicity) | 5 (90% or more of herbicidal effect and crop phytotoxicity) | 5 (90% or more of herbicidal effect and crop phytotoxicity) | 5 (90% or more of herbicidal effect and crop phytotoxicity) | 5 (90% or more of herbicidal effect and crop phytotoxicity) | 5 (90% or more of herbicidal effect and crop phytotoxicity) | 5 (90% or more of herbicidal effect and crop phytotoxicity) | 5 (90% or more of herbicidal effect and crop phytotoxicity) |
| CSc1cccc(-n2c(C(F)(F)F)ccc(C(=O)C3=C(O)CCCC3=O)c2=O)c1 [I-80] | 5 (90% or more of herbicidal effect and crop phytotoxicity) | 5 (90% or more of herbicidal effect and crop phytotoxicity) | 5 (90% or more of herbicidal effect and crop phytotoxicity) | 5 (90% or more of herbicidal effect and crop phytotoxicity) | 5 (90% or more of herbicidal effect and crop phytotoxicity) | 5 (90% or more of herbicidal effect and crop phytotoxicity) | 5 (90% or more of herbicidal effect and crop phytotoxicity) | 5 (90% or more of herbicidal effect and crop phytotoxicity) | 5 (90% or more of herbicidal effect and crop phytotoxicity) | 5 (90% or more of herbicidal effect and crop phytotoxicity) | 5 (90% or more of herbicidal effect and crop phytotoxicity) |
| C[S+]([O-])c1cccc(-n2c(C(F)(F)F)ccc(C(=O)C3=C(O)CCCC3=O)c2=O)c1 (stereo not shown) [I-81] | 5 (90% or more of herbicidal effect and crop phytotoxicity) | 5 (90% or more of herbicidal effect and crop phytotoxicity) | 5 (90% or more of herbicidal effect and crop phytotoxicity) | 5 (90% or more of herbicidal effect and crop phytotoxicity) | 5 (90% or more of herbicidal effect and crop phytotoxicity) | 5 (90% or more of herbicidal effect and crop phytotoxicity) | 5 (90% or more of herbicidal effect and crop phytotoxicity) | 5 (90% or more of herbicidal effect and crop phytotoxicity) | 5 (90% or more of herbicidal effect and crop phytotoxicity) | 5 (90% or more of herbicidal effect and crop phytotoxicity) | 5 (90% or more of herbicidal effect and crop phytotoxicity) |
| CS(=O)(=O)c1cccc(-n2c(C(F)(F)F)ccc(C(=O)C3=C(O)CCCC3=O)c2=O)c1 [I-82] | 5 (90% or more of herbicidal effect and crop phytotoxicity) | 5 (90% or more of herbicidal effect and crop phytotoxicity) | 5 (90% or more of herbicidal effect and crop phytotoxicity) | 5 (90% or more of herbicidal effect and crop phytotoxicity) | 5 (90% or more of herbicidal effect and crop phytotoxicity) | 5 (90% or more of herbicidal effect and crop phytotoxicity) | 5 (90% or more of herbicidal effect and crop phytotoxicity) | 5 (90% or more of herbicidal effect and crop phytotoxicity) | 5 (90% or more of herbicidal effect and crop phytotoxicity) | 5 (90% or more of herbicidal effect and crop phytotoxicity) | 5 (90% or more of herbicidal effect and crop phytotoxicity) |

Reference: patent publication US8076487B2, “Pyridone derivative and herbicide” (Kumiai Chemical Industry Co., Ltd., priority 2006, dated 2011)
